In ChEMBL document CHEMBL4028801, “A multifactorial approach to hepatobiliary transporter assessment enables improved therapeutic compound development” (Toxicol Sci, 2013) one finds IC50 data, which are given here for 30 compounds.

Structures can show the parent of a compound that is named as a salt. A value given as a limit tells only on which side of the number the result lay.

Assay [1] deals with T1, ATP-binding cassette sub-family C member 4 (Homo sapiens, UniProt O15439).
T1 sequence (O15439 whole entry): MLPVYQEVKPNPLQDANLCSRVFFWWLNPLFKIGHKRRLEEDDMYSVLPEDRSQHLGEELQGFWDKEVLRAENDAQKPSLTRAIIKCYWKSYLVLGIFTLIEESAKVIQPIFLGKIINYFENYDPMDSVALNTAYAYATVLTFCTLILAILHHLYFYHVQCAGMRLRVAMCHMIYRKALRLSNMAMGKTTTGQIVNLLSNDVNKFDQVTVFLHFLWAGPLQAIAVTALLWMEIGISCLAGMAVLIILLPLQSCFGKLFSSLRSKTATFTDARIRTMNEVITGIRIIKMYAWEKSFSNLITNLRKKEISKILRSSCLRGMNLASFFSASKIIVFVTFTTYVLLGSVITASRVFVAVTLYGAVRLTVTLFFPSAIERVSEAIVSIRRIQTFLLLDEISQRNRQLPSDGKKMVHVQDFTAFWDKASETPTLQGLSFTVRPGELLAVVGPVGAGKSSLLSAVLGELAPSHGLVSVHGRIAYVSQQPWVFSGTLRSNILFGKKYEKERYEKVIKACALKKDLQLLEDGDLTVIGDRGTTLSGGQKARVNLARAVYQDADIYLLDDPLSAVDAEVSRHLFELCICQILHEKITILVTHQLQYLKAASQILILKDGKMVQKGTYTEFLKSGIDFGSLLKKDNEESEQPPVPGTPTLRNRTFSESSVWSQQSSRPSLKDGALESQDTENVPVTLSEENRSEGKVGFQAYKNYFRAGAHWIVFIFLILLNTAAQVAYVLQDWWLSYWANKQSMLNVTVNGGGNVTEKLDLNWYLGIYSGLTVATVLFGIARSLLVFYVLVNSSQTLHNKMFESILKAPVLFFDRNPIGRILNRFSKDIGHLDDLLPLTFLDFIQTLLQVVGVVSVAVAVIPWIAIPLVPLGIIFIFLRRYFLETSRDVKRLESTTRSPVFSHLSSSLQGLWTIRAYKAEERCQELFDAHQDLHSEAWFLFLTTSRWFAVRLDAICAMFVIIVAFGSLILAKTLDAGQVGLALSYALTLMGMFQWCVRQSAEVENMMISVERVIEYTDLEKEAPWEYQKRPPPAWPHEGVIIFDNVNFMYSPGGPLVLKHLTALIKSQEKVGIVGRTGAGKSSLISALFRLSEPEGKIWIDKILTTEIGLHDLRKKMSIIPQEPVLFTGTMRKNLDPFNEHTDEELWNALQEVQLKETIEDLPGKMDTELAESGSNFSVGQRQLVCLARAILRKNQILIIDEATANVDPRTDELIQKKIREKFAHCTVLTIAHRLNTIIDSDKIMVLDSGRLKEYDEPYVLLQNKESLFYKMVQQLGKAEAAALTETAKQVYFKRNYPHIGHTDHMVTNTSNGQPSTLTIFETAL
The assay is described as follows: Inhibition of human MRP4 overexpressed in Sf9 cell membrane vesicles assessed as uptake of [3H]-estradiol-17beta-D-glucuronide in presence of ATP and GSH measured after 20 mins by membrane vesicle transport assay. Type of assay: ADME, cell-based.

The next assay concerns the target Bile salt export pump (Homo sapiens, UniProt O95342). In words: Inhibition of human BSEP overexpressed in Sf9 cell membrane vesicles assessed as uptake of [3H]-taurocholate in presence of ATP measured after 15 to 20 mins by membrane vesicle transport assay. It counts as ADME, cell-based.
Assay [2] deals with ATP-binding cassette sub-family C member 2 (Homo sapiens, UniProt Q92887). The assay is described as follows: Inhibition of human MRP2 overexpressed in Sf9 cell membrane vesicles assessed as uptake of [3H]-estradiol-17beta-D-glucuronide in presence of ATP and GSH measured after 20 mins by membrane vesicle transport assay.
Assay [3] deals with ATP-binding cassette sub-family C member 3 (Homo sapiens, UniProt O15438). In words: Inhibition of human MRP3 overexpressed in Sf9 insect cell membrane vesicles assessed as uptake of [3H]-estradiol-17beta-D-glucuronide in presence of ATP and GSH measured after 10 mins by membrane vesicle transport assay. It counts as ADME, cell-based.
Chain of ATP-binding cassette sub-family C member 3 (O15438 whole entry): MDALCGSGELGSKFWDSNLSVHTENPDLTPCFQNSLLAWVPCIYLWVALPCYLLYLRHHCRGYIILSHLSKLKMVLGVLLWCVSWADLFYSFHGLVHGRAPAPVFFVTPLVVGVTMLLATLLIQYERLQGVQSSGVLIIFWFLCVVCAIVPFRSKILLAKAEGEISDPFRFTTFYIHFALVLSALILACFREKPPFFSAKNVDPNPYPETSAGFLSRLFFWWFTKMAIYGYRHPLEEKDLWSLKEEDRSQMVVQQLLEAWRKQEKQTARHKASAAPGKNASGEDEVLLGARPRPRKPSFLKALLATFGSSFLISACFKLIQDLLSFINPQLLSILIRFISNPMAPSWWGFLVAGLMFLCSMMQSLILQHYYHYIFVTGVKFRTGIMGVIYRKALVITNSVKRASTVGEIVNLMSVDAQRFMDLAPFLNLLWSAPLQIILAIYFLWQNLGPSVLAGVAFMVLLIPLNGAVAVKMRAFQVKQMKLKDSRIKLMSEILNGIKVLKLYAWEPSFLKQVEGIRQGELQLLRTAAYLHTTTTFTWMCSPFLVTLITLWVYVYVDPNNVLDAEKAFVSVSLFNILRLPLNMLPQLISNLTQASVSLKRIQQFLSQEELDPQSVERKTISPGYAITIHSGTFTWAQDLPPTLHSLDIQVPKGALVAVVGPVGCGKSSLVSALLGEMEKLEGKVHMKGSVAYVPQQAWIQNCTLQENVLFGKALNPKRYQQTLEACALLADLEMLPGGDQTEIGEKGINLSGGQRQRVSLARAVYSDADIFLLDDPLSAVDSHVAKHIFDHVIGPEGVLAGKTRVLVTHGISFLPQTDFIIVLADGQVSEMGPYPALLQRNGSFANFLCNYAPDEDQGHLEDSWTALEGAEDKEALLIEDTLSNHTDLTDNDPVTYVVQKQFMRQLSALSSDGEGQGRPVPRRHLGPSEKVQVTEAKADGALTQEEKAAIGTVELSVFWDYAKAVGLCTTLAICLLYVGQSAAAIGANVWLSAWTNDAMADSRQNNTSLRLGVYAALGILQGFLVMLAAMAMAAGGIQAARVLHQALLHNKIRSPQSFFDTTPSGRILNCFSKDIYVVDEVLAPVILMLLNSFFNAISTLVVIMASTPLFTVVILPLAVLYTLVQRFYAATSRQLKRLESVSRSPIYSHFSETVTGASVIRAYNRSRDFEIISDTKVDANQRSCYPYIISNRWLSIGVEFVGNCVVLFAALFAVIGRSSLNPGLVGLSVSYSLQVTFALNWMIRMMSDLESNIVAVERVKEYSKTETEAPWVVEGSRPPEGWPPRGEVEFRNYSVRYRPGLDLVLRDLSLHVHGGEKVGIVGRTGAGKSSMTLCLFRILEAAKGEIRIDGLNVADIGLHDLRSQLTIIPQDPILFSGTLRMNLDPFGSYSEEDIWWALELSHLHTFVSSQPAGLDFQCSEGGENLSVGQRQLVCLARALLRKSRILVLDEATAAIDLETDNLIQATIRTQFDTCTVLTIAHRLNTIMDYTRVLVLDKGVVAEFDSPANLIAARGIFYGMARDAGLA

Chain of Bile salt export pump (O95342 whole entry): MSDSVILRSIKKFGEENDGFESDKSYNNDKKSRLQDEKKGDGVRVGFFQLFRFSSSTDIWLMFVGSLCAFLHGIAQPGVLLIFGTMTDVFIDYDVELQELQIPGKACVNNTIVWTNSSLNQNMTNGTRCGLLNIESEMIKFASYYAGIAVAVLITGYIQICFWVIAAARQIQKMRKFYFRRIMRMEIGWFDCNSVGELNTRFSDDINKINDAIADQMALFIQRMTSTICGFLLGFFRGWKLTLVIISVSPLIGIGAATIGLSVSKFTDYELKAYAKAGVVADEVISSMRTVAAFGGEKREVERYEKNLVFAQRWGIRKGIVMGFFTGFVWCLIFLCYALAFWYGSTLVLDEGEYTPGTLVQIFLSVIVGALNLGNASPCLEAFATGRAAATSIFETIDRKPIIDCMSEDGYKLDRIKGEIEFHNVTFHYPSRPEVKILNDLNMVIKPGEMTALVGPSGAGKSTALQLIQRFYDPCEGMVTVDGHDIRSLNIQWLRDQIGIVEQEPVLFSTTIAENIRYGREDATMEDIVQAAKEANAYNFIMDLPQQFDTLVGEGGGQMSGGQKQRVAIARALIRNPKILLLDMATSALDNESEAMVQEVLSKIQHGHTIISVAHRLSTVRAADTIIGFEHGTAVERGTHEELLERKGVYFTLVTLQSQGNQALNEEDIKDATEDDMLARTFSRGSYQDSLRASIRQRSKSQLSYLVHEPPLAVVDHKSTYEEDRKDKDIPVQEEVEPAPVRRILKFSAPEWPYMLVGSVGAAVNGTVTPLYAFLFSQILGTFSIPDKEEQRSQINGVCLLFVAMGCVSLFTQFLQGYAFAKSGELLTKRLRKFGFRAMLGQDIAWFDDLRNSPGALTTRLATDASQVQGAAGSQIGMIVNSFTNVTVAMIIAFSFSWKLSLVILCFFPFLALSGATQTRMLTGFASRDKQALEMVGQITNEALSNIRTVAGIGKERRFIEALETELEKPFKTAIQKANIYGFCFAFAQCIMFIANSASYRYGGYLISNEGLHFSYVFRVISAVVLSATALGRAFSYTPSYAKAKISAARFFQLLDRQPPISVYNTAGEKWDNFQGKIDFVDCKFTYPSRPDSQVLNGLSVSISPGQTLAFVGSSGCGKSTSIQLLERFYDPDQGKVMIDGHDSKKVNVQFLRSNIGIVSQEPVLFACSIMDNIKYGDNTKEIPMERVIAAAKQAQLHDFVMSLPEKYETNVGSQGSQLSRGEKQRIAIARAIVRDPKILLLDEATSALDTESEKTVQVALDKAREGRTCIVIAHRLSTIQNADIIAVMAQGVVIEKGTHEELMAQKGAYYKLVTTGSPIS
Chain of ATP-binding cassette sub-family C member 2 (Q92887 whole entry): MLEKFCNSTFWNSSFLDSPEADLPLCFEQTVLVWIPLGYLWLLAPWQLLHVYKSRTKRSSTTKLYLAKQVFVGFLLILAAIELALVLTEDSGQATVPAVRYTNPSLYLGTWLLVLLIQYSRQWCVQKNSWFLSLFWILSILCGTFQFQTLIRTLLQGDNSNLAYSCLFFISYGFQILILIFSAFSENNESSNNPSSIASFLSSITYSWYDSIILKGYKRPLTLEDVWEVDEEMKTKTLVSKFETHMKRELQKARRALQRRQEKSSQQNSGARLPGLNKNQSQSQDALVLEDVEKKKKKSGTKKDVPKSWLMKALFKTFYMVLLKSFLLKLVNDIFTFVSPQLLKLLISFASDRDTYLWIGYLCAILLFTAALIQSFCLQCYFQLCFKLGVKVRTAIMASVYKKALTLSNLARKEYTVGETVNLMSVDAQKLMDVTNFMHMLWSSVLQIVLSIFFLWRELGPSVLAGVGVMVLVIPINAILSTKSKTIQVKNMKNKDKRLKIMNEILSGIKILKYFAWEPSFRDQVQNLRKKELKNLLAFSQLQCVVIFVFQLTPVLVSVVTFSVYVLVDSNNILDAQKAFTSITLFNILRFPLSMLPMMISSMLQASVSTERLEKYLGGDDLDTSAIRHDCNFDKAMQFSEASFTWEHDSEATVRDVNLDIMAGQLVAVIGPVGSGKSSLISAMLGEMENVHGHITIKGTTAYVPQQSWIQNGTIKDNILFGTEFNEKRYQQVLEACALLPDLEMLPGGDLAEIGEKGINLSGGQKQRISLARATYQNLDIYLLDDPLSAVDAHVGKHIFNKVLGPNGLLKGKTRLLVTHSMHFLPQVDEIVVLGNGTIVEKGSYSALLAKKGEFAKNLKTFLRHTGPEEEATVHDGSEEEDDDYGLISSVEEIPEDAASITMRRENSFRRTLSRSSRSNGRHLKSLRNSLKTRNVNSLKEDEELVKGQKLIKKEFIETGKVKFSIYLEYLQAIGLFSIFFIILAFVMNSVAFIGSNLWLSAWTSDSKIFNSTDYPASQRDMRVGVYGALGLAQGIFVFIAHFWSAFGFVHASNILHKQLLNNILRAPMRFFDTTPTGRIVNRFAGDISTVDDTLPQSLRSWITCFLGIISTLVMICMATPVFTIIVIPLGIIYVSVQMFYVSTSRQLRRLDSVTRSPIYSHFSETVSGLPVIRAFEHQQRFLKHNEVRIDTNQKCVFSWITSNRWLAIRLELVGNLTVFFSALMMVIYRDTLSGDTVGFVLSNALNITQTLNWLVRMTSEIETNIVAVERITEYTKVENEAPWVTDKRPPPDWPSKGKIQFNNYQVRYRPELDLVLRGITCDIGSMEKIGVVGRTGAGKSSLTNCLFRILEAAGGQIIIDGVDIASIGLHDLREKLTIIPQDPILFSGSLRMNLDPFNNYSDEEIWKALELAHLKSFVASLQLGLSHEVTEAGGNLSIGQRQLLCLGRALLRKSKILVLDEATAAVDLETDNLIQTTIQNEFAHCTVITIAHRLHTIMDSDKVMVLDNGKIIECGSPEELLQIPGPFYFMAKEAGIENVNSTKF

As to `Cc1cc(NS(=O)(=O)c2ccc(N)cc2)no1` [SULFAMETHOXAZOLE], the half-maximal inhibitory concentration (IC50) (in assay [1]; on Bile salt export pump; in assay [2]; in assay [3]) was above 133 µM each time.

For `Cc1noc(NS(=O)(=O)c2ccc(N)cc2)c1C` [SULFISOXAZOLE], the IC50 (in assay [1]; at Bile salt export pump; in assay [2]; in assay [3]) was above 133 µM each time.

For the compound `Cc1ccc(C(=O)Nc2ccc(S(=O)(=O)O)c3cc(S(=O)(=O)O)cc(S(=O)(=O)O)c23)cc1NC(=O)c1cccc(NC(=O)Nc2cccc(C(=O)Nc3cc(C(=O)Nc4ccc(S(=O)(=O)O)c5cc(S(=O)(=O)O)cc(S(=O)(=O)O)c45)ccc3C)c2)c1` [SURAMIN], the half-inhibitory concentration (IC50) in assay [1] was above 133 µM; at Bile salt export pump, above 133 µM; in assay [2], 36.8 µM; in assay [3], above 133 µM.

Regarding `Nc1c2c(nc3ccccc13)CCCC2` [TACRINE], the IC50 was 23.7 µM in assay [1], above 133 µM on Bile salt export pump, above 133 µM in assay [2] and above 133 µM in assay [3].

On to `O=C1OC(OC(=O)c2cccnc2Nc2cccc(C(F)(F)F)c2)c2ccccc21` (stereo not given) [TALNIFLUMATE], for which the IC50 (in assay [1]; on Bile salt export pump; in assay [2]; in assay [3]) was above 133 µM each time.

On to `CCOC(=O)c1ccc(C#Cc2ccc3c(c2)C(C)(C)CCS3)nc1` [TAZAROTENE], for which the IC50 (in assay [1]; at Bile salt export pump; in assay [2]; in assay [3]) was above 133 µM throughout.

As to `CCCCCNC(=N)N/N=C/c1c[nH]c2ccc(OC)cc12` [TEGASEROD MALEATE], the IC50 (in assay [1]; on Bile salt export pump; in assay [2]; in assay [3]) was above 133 µM throughout.

For `Cc1cn([C@@H]2C[C@@H](O)[C@H](CO)O2)c(=O)[nH]c1=O` [TELBIVUDINE], the IC50 (in assay [1]; at Bile salt export pump; in assay [2]; in assay [3]) was above 133 µM each time.

In the case of `Cn1nnc2c(C(N)=O)ncn2c1=O` [TEMOZOLOMIDE], the IC50 (in assay [1]; at Bile salt export pump; in assay [2]; in assay [3]) was above 133 µM each time.

With `COc1cc([C@@H]2c3cc4c(cc3[C@@H](O[C@@H]3O[C@@H]5CO[C@@H](c6cccs6)O[C@H]5[C@H](O)[C@H]3O)[C@H]3COC(=O)[C@H]23)OCO4)cc(OC)c1O` [TENIPOSIDE], the IC50 in assay [1] was 34.9 µM; on Bile salt export pump, above 133 µM; in assay [2], above 133 µM; in assay [3], 20.6 µM.

For `CC(C)OC(=O)OCOP(=O)(CO[C@H](C)Cn1cnc2c(N)ncnc21)OCOC(=O)OC(C)C` [TENOFOVIR DISOPROXIL FUMARATE], the IC50 (in assay [1]; on Bile salt export pump; in assay [2]; in assay [3]) was above 133 µM in each case.

Turning to `CN1C(C(=O)Nc2ccccn2)=C(O)c2sccc2S1(=O)=O` [TENOXICAM], the IC50 (in assay [1]; on Bile salt export pump; in assay [2]; in assay [3]) was above 133 µM in each case.

Regarding `COc1cc2nc(N3CCN(C(=O)C4CCCO4)CC3)nc(N)c2cc1OC` (stereo not given) [TERAZOSIN], the 50% inhibitory concentration (IC50) in assay [1] was 36.8 µM; at Bile salt export pump, above 133 µM; in assay [2], above 133 µM; in assay [3], above 133 µM.

`CN(C/C=C/C#CC(C)(C)C)Cc1cccc2ccccc12` [TERBINAFINE HYDROCHLORIDE]: the IC50 (in assay [1]; on Bile salt export pump; in assay [2]; in assay [3]) was above 133 µM each time.

Regarding `CC(C)(C)NCC(O)c1cc(O)cc(O)c1` (stereo not given) [TERBUTALINE], the IC50 (in assay [1]; on Bile salt export pump; in assay [2]; in assay [3]) was above 133 µM each time.

On to `CC(C)(C)c1ccc(C(O)CCCN2CCC(C(O)(c3ccccc3)c3ccccc3)CC2)cc1` (stereo not given) [TERFENADINE], for which the IC50 (in assay [1]; on Bile salt export pump; in assay [2]; in assay [3]) was above 133 µM in each case.

`Cn1c(=O)c2[nH]cnc2n(C)c1=O` [THEOPHYLLINE]: the IC50 (in assay [1]; at Bile salt export pump; in assay [2]; in assay [3]) was above 133 µM in each case.

As to `CS(=O)(=O)c1ccc([C@@H](O)[C@@H](CO)NC(=O)C(Cl)Cl)cc1` [THIAMPHENICOL], the IC50 (in assay [1]; at Bile salt export pump; in assay [2]; in assay [3]) was above 133 µM in each case.

Turning to `S=P(N1CC1)(N1CC1)N1CC1` [THIOTEPA], the IC50 (in assay [1]; at Bile salt export pump; in assay [2]; in assay [3]) was above 133 µM in each case.

`CCN(CC)CCNC(=O)c1cc(S(C)(=O)=O)ccc1OC` [TIAPRIDE]: the IC50 (in assay [1]; at Bile salt export pump; in assay [2]; in assay [3]) was above 133 µM throughout.

Take `CN(C)c1cc(NC(=O)CNC(C)(C)C)c(O)c2c1C[C@H]1C[C@H]3[C@H](N(C)C)C(O)=C(C(N)=O)C(=O)[C@@]3(O)C(O)=C1C2=O` [TIGECYCLINE]: the IC50 (in assay [1]; on Bile salt export pump; in assay [2]; in assay [3]) was above 133 µM in each case.

For the compound `CCN(CC)CCOc1ccc2c(c1)C(=O)c1cc(OCCN(CC)CC)ccc1-2` [TILORONE], the IC50 (in assay [1]; at Bile salt export pump; in assay [2]; in assay [3]) was above 133 µM in each case.

`CC(C)(C)NC[C@H](O)COc1nsnc1N1CCOCC1` [TIMOLOL]: the IC50 (in assay [1]; at Bile salt export pump; in assay [2]; in assay [3]) was above 133 µM throughout.

Take `Clc1ccc2nsnc2c1NC1=NCCN1` [TIZANIDINE]: the IC50 (in assay [1]; at Bile salt export pump; in assay [2]; in assay [3]) was above 133 µM in each case.

Consider `NC[C@H]1O[C@H](O[C@H]2[C@H](O)[C@@H](O[C@H]3O[C@H](CO)[C@@H](O)[C@H](N)[C@H]3O)[C@H](N)C[C@@H]2N)[C@H](N)C[C@@H]1O` [TOBRAMYCIN], for which the IC50 (in assay [1]; at Bile salt export pump; in assay [2]; in assay [3]) was above 133 µM in each case.

For `C[C@@H]1CCN(C(=O)CC#N)C[C@@H]1N(C)c1ncnc2[nH]ccc12` [TOFACITINIB], the IC50 (in assay [1]; at Bile salt export pump; in assay [2]; in assay [3]) was above 133 µM in each case.

For `CCCCNC(=O)NS(=O)(=O)c1ccc(C)cc1` [TOLBUTAMIDE], the IC50 (in assay [1]; at Bile salt export pump; in assay [2]; in assay [3]) was above 133 µM throughout.

As for `Cc1cccc(N(C)C(=S)Oc2ccc3ccccc3c2)c1` [TOLNAFTATE], the IC50 (in assay [1]; on Bile salt export pump; in assay [2]; in assay [3]) was above 133 µM throughout.

Consider `CC1(C)O[C@@H]2[C@@H](CO[C@@]3(COS(N)(=O)=O)OC(C)(C)O[C@@H]23)O1` [TOPIRAMATE], for which the IC50 (in assay [1]; on Bile salt export pump; in assay [2]; in assay [3]) was above 133 µM in each case.

As for `CN(C)CCOc1ccc(/C(=C(/CCCl)c2ccccc2)c2ccccc2)cc1` [TOREMIFENE CITRATE], the IC50 in assay [1] is above 133 µM; at Bile salt export pump it was 115 µM; in assay [2], above 133 µM; in assay [3], above 133 µM.
